# According to ChEMBL document CHEMBL1833943, “Synthesis and structure-activity relationships of varied ether linker analogues of the antitubercular drug (6S)-2-nitro-6-{[4-(trifluoromethoxy)benzyl]oxy}-6,7-dihydro-5h-imidazo[2,1-b][1,3]oxazine (PA-824)” (J Med Chem, 2011):
# Experiments:
# [1] = test system: Mycobacterium tuberculosis; assay: Antituberculosis activity against Mycobacterium tuberculosis H37Rv under anaerobic conditions by fluorescence based low-oxygen-recovery assay; format: functional
# [2] = test system: Mycobacterium tuberculosis; assay: Antituberculosis activity against Mycobacterium tuberculosis H37Rv under aerobic conditions by microplate alamar blue assay; format: functional
Compound,MIC [1],MIC [2]
O=[N+]([O-])c1cn2c(n1)OC[C@@H](Oc1cccc(-c3ccc(F)cc3)n1)C2,27 µM,3.2 µM
O=[N+]([O-])c1cn2c(n1)OC[C@@H](OCC#Cc1ccc(-c3ccc(C(F)(F)F)cc3)nc1)C2,0.58 µM,0.07 µM
O=[N+]([O-])c1cn2c(n1)OC[C@@H](Oc1ccc(-c3ccc(C(F)(F)F)cc3)nc1)C2,1.2 µM,0.78 µM
O=[N+]([O-])c1cn2c(n1)OC[C@@H](OCC#Cc1ccc(-c3ccc(OC(F)F)cc3)cc1)C2,1.8 µM,0.14 µM
O=[N+]([O-])c1cn2c(n1)OC[C@@H](OCC#Cc1ccc(-c3ccc(OC(F)F)cc3)nc1)C2,0.61 µM,0.08 µM
O=[N+]([O-])c1cn2c(n1)OC[C@@H](Oc1ccnc(-c3ccc(F)cc3)c1)C2,8.5 µM,0.67 µM
O=[N+]([O-])c1cn2c(n1)OC[C@@H](OCCOc1ccc(-c3ccc(C(F)(F)F)nc3)cn1)C2,10 µM,0.22 µM
O=[N+]([O-])c1cn2c(n1)OC[C@@H](OC/C=C/c1ccc(-c3ccc(C(F)(F)F)nc3)cc1)C2,15 µM,0.02 µM
O=[N+]([O-])c1cn2c(n1)OC[C@@H](OCC#Cc1ccc(-c3ccc(F)cc3)cc1)C2,2.7 µM,0.035 µM
O=[N+]([O-])c1cn2c(n1)OC[C@@H](OCCCC#Cc1ccc(-c3ccc(F)cc3)cc1)C2,1.6 µM,0.07 µM
O=[N+]([O-])c1cn2c(n1)OC[C@@H](OCC#Cc1cccc(-c3ccc(C(F)(F)F)cc3)c1)C2,1.3 µM,0.27 µM
O=[N+]([O-])c1cn2c(n1)OC[C@@H](OCC#Cc1ccc(-c3ccc(C(F)(F)F)cc3)cn1)C2,0.75 µM,0.02 µM
O=[N+]([O-])c1cn2c(n1)OC[C@@H](Oc1cc(-c3ccc(C(F)(F)F)nc3)ncn1)C2,62 µM,3 µM
O=[N+]([O-])c1cn2c(n1)OC[C@@H](OCCCc1ccc(-c3ccc(C(F)(F)F)nc3)cc1)C2,1.9 µM,0.07 µM
O=[N+]([O-])c1cn2c(n1)OC[C@@H](Oc1cc(-c3ccc(C(F)(F)F)cc3)ccn1)C2,32 µM,0.88 µM
O=[N+]([O-])c1cn2c(n1)OC[C@@H](Oc1ncc(-c3ccc(C(F)(F)F)nc3)cn1)C2,17 µM,1.3 µM
O=[N+]([O-])c1cn2c(n1)OC[C@@H](OCC#Cc1ccc(-c3ccc(F)cc3)nc1)C2,1 µM,0.05 µM
O=[N+]([O-])c1cn2c(n1)OC[C@@H](OCC#Cc1ccc(-c3ccc(F)cc3)cn1)C2,0.85 µM,0.05 µM

Compound,MIC [1],MIC [2]
O=[N+]([O-])c1cn2c(n1)OC[C@@H](OCCCC#Cc1ccc(-c3ccc(C(F)(F)F)nc3)cc1)C2,63 µM,0.11 µM
O=[N+]([O-])c1cn2c(n1)OC[C@@H](Oc1ccc(-c3ccc(C(F)(F)F)cc3)cc1)C2,> 128 µM,0.39 µM
O=[N+]([O-])c1cn2c(n1)OC[C@@H](Oc1ccc(-c3ccc(C(F)(F)F)nc3)cc1)C2,4.1 µM,0.51 µM
CC(O[C@@H]1COc2nc([N+](=O)[O-])cn2C1)c1ccc(-c2ccc(C(F)(F)F)cc2)cc1 (stereo not given in full),2.2 µM,0.18 µM
O=[N+]([O-])c1cn2c(n1)OC[C@@H](OCCOc1ncc(-c3ccc(F)cc3)cn1)C2,13 µM,0.13 µM
O=[N+]([O-])c1cn2c(n1)OC[C@@H](Oc1cccc(-c3ccc(C(F)(F)F)nc3)n1)C2,> 128 µM,5.7 µM
O=[N+]([O-])c1cn2c(n1)OC[C@@H](OC/C=C/c1ccc(-c3ccc(F)cc3)cc1)C2,3.1 µM,0.09 µM
O=[N+]([O-])c1cn2c(n1)OC[C@@H](OCCCc1ccc(-c3ccc(F)cc3)cc1)C2,0.92 µM,0.045 µM
O=[N+]([O-])c1cn2c(n1)OC[C@@H](OCCCC#Cc1ccc(-c3ccc(OC(F)F)cc3)cc1)C2,39 µM,0.035 µM
O=[N+]([O-])c1cn2c(n1)OC[C@@H](Oc1ncc(-c3ccc(C(F)(F)F)cc3)cn1)C2,3 µM,0.21 µM
O=[N+]([O-])c1cn2c(n1)OC[C@@H](OCCCC#Cc1ccc(-c3ccc(C(F)(F)F)cc3)cc1)C2,> 128 µM,0.085 µM
CC(O[C@@H]1COc2nc([N+](=O)[O-])cn2C1)c1ccc(-c2ccc(F)cc2)cc1 (stereo not given in full),1.3 µM,0.22 µM
O=[N+]([O-])c1cn2c(n1)OC[C@@H](Oc1ccc(-c3ccc(F)cc3)cc1)C2,1.2 µM,0.31 µM
O=[N+]([O-])c1cn2c(n1)OC[C@@H](OCC#Cc1cccc(-c3ccc(C(F)(F)F)nc3)c1)C2,0.96 µM,0.12 µM
O=[N+]([O-])c1cn2c(n1)OC[C@@H](OCC#Cc1ccc(-c3ccc(OC(F)F)cc3)cn1)C2,0.44 µM,0.025 µM
O=[N+]([O-])c1cn2c(n1)OC[C@@H](OCCOc1ncc(-c3ccc(C(F)(F)F)cc3)cn1)C2,5.4 µM,0.12 µM
O=[N+]([O-])c1cn2c(n1)OC[C@@H](OCCOc1ccc(-c3ccc(C(F)(F)F)nc3)cc1)C2,4.1 µM,0.025 µM
